This note sets out measurements from patent US20230373972A1, “PIPERAZINE DERIVATIVE, PREPARATION METHOD THEREFOR AND USE THEREOF” (Zhejiang Hisun Pharmaceutical Co., Ltd., priority 2020, published 2023).

The structures appear in SMILES notation. Read-outs that look alike come from different tables or passages of the source.

The target in data set [1] is T1, Native human Factor XIa protease (Homo sapiens, UniProt P03951).
T1 construct: The Native human Factor XIa protease was purchased from Abcam; purchased Abcam ab62411
The experiment in a line: Inhibition of activity of Factor XIa protease (chromogenic substrate S-2366). The class given is biochemical. Particulars: S-2366 1 mM, 37° C. 10 minutes, absorption at 405 nm. The procedure, abridged:
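Native human Factor XIa (final […]) in 100 mM Tris-HCl, 200 mM NaCl, 0.02% Tween 20, pH 7.4, preincubated with compound 5 min on ice; 1 mM S-2366 added, 10 min at 37° C. Absorbance at 405 nm versus 0.1% DMSO control; IC50 by nonlinear regression, compound 10,000 nM to […] final.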

Data set [2] in a line: Pharmacokinetics in SD rat. The class given is in vivo. Particulars: male, plasma; for AUC(0-t): read-out: Curve area AUC0-t; for half-life: read-out: Half-life period T1/2(h) (converted). On the procedure: Taking a SD rat as a test animal, the SD rat was administrated with the compound of the present invention by intravenous injection and/or intragastric administration, and drug concentrations in plasma at different times were determined by a IC/MS/MS method to study pharmacokinetic characteristics of the compound of the present invention in the SD rat.
SD rats, male, 195 g to 235 g, 6 weeks old to 8 weeks old, purchased from Shanghai JieSiJie Laboratory Animal Co., Ltd.
Preparation of drug administrated by intravenous injection: a proper amount of compound to be tested was added to a proper amount of DMAC; (30% Soltol HS 15): Saline=10%: 10%: 80% (v/v/v), and shaken in a vortex manner, so as to prepare a final solution with a concentration of 0.5 mg/mL.
Preparation of drug administrated by intragastric administration: a proper amount of compound to be tested was added to a proper amount of DMAC: (30% Soltol HS 15): Saline=10%: 10%: 80% (v/v/v), and shaken in a vortex manner, so as to prepare a final solution with a concentration of 1 mg/mL.
SD rats were divided into an intravenous injection group of the compound to be tested (3 rats/group) and an intragastric administration group (3 rats/group) of the compound to be tested.
Intravenous injection group: the drug was administrated by dorsalis pedis vein injection (according to a dosage of 1 mg/kg and a volume of 2 mL/kg) without fasting.
Intragastric administration group: the drug was administrated by intragastric administration (according to a dosage of 10 mg/kg and a volume of 10 mL/kg) after fasting overnight, and food was taken 4 hours after administration.
Intravenous injection group: about 150 μL of blood was collected into an EDTA-K2 anticoagulant tube through a jugular vein 0.083 hour, 0.25 hour, 0.5 hour, 1 hour, 2 hours, 4 hours, 8 hours and 24 hours after administration.
Intragastric administration group; about 150 μL of blood was collected into an EDTA-K2 anticoagulant tube through a jugular vein 0.25 how, 0.5 hour, 1 hour, 2 hours, 4 hours, 8 hours and 24 hours after administration.
The blood sample was stored in wet ice first, and plasma was centrifugally separated within 15 minutes after sampling (centrifugation conditions: 2,000 g, 4° C., 5 minutes). The collected upper plasma was stored at −70° C. before analysis.
Contents of the compound to be tested in rat plasma after intravenous injection and intragastric administration were determined by LC-MS/MS.

In a further data set the test system is human plasma. The experiment in a line: In-vitro anticoagulation on human plasma (APTT kit, coagulation time). Particulars: concentration of the compound when the coagulation time (APTT) was prolonged twice.
[3] abbreviates: iv, injection administration 1 mg/kg.
[4] abbreviates: po, intragastric administration 10 mg/kg.

T1 sequence (P03951 388-625 limits assumed): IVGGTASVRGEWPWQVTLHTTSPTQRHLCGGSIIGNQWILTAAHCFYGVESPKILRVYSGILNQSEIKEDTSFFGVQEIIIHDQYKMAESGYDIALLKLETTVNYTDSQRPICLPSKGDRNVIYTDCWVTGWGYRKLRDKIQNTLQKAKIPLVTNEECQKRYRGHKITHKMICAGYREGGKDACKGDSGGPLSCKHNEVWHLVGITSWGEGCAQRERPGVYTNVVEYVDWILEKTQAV
T1 sequence (P03951 19-387 partner limits assumed): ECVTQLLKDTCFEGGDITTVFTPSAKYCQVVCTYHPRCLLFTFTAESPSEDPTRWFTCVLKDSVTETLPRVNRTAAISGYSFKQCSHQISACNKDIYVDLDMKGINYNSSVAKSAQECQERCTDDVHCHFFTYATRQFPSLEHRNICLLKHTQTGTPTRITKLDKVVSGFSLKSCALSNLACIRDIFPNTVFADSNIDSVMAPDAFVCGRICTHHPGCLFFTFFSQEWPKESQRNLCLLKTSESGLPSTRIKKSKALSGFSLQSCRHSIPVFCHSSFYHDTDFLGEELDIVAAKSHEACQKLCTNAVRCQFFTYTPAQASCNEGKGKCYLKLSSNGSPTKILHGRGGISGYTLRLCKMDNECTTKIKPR

`COCC[C@@H](C(=O)Nc1ccc2nn(C)cc2c1)N1CC(=O)N(c2cc(Cl)ccc2-n2cc(Cl)nn2)CC1=O` [Example 96, (S)-2-(4-(5-chloro-2-(4-chloro-1H-1,2,3-triazol-1-yl)phenyl)-2,5-dioxopiperazin-1-yl)-4-methoxy-N-(2-methyl-2H-indazol-5-yl)butanamide]: 42.8 nM corresponded to half-maximal inhibition in data set [1] (IC50). In addition, in data set [2] (setting [3]), the AUC(0-t) was determined as 0.532 ± 0.0878 µg·h/mL and the half-life is 0.942 ± 0.078 h. Also, in data set [2] (po, intragastric 10 mg/kg vs injection 1 mg/kg, read-out: Bioavailability F(%)), the bioavailability (commonly the share of a dose that reaches the circulation, judged against a reference dose that is usually intravenous) was 72.5 ± 13.7%. Also, the Cmax in data set [2] (po, intragastric administration 10 mg/kg, read-out: Blood concentration Cmax) worked out at 1.79 ± 0.51 µg/mL. In data set [2] (setting [4]), the AUC(0-t) came to 3.86 ± 0.728 µg·h/mL and the half-life is 1.54 ± 0.784 h. Besides, the “CT2” value in the data set with human plasma is 5.3 µM.
